Converted amounts (≈) assume the structure as drawn. A value given as a limit tells only on which side of the number the result lay.

Test [1] deals with Staphylococcus aureus. Description: Antibacterial activity against methicillin-resistant Staphylococcus aureus ATCC 43300 incubated for 16 to 18 hrs by CLSI based assay. Conditions: time 16-18 hrs. The format is functional.
The subject of test [2] is Staphylococcus aureus. Description: Resistance index, ratio of MIC for antibacterial activity against Staphylococcus aureus ATCC 43300 incubated for 16 to 18 hrs by CLSI based assay to MIC for antibacterial activity against Staphylococcus aureus DSM 20231 incubated for 16 to 18 hrs by CLSI based assay. Conditions: time 16-18 hrs. The class given is functional.
Test [3] relates to Staphylococcus aureus. Description: Antibacterial activity against Staphylococcus aureus ATCC 25923 by CLSI-based broth microdilution method. The format is functional.
Test [4] relates to Staphylococcus aureus. Briefly: Antibacterial activity against Methicillin-resistant Staphylococcus aureus N315 incubated for 24 hrs by two fold serial dilution method. The class given is functional.
The test system of test [5] is Staphylococcus aureus. Description: Antibacterial activity against Staphylococcus aureus ATCC 25923 incubated for 24 hrs by two fold serial dilution method. The class given is functional.
Test [6] concerns Staphylococcus aureus. Briefly: Antibacterial activity against Methicillin-resistant Staphylococcus aureus 1 incubated for 16 hrs by agar dilution method. The class given is functional.
The test system of test [7] is Staphylococcus aureus. Description: Antibacterial activity against Methicillin-resistant Staphylococcus aureus 2 incubated for 16 hrs by agar dilution method. The format is functional.
Test [8] relates to Staphylococcus aureus. Description: Antibacterial activity against Methicillin-resistant Staphylococcus aureus ATCC 33591. The format is functional, organism-based.
For a further test, the system named is Enterococcus faecalis. Briefly: Antibacterial activity against vancomycin susceptible Enterococcus faecalis ATCC 29212. The format is functional.
The subject of test [9] is Enterococcus. Briefly: Antibacterial activity against vancomycin resistant Enterococcus ATCC 51299. The class given is functional.
The subject of test [10] is Enterococcus. Description: Antibacterial activity against Vancomycin-resistant enterococcus 2 incubated for 16 hrs by agar dilution method. The class given is functional.
The test system of test [11] is Staphylococcus aureus. Description: Antibacterial activity against methicillin-sensitive Staphylococcus aureus ATCC 29213 by broth microdilution method. The format is functional.
In test [12] the test system is Staphylococcus aureus. Description: Antibacterial activity against methicillin-resistant Staphylococcus aureus ATCC 33591 by broth microdilution method. The format is functional.

For `N=C(N)NCCC[C@H](NC(=O)[C@H](Cc1c[nH]c2ccccc12)NC(=O)[C@H](CCCNC(=N)N)NC(=O)[C@H](Cc1c[nH]c2ccccc12)NC(=O)[C@@H](N)CCCNC(=N)N)C(=O)N[C@@H](Cc1c[nH]c2ccccc12)C(=O)N[C@@H](CCCCn1cc(COc2ccccc2)nn1)C(N)=O`, the MIC with Staphylococcus aureus [1] amounted to 2.7 µM (≈ 3.59 µg/mL). For the same compound, the Ratio in the test on Staphylococcus aureus [2] came out at 0.5.

In the test on Staphylococcus aureus [3], `CC1(C)S[C@@H]2[C@H](NC(=O)[C@H](N)c3ccccc3)C(=O)N2[C@H]1C(=O)O` [AMPICILLIN] came in with a minimum inhibitory concentration (MIC) of 4 µg/mL (≈ 11.4 µM).

With `Cc1ccc2c(c1)nnn2CC(O)Cn1cnc2cc(Cl)ccc2c1=O` (stereo unspecified), the minimum inhibitory concentration (MIC) in the test with Staphylococcus aureus [4] and against Staphylococcus aureus [5] was at least 64 µg/mL throughout.

As for `C#CCOCCOCCOCc1cn([C@H](CC(C)C)C(=O)N[C@@H]2Cc3ccc(c(Cl)c3)Oc3cc4cc(c3O[C@@H]3O[C@H](CO)[C@@H](O)[C@H](O)[C@H]3O[C@H]3C[C@](C)(NCCCCCCCc5ccccc5)[C@H](O)[C@H](C)O3)Oc3ccc(cc3Cl)[C@@H](O)[C@@H]3NC(=O)[C@H](NC(=O)[C@@H]4NC(=O)[C@H](CC(=O)O)NC2=O)c2ccc(O)c(c2)-c2c(O)cc(O)cc2[C@H](C(=O)O)NC3=O)nn1`, the minimum inhibitory concentration (MIC) against Staphylococcus aureus [6] is 25 µg/mL (≈ 13.9 µM); against Staphylococcus aureus [7], 12.5 µg/mL (≈ 6.93 µM).

For the compound `CN[C@H](CC(C)C)C(=O)N[C@@H]1Cc2ccc(c(Cl)c2)Oc2cc3cc(c2O[C@@H]2O[C@H](CO)[C@@H](O)[C@H](O)[C@H]2O[C@H]2C[C@](C)(N)[C@H](O)[C@H](C)O2)Oc2ccc(cc2Cl)[C@@H](O)[C@@H]2NC(=O)[C@H](NC(=O)[C@@H]3NC(=O)[C@H](CC(=O)O)NC1=O)c1ccc(O)c(c1)-c1c(O)cc(O)cc1[C@H](C(=O)NCCCc1cn(CCOCCOCCOCCNC(=O)[C@@H]3NC(=O)[C@H]4NC(=O)[C@H](NC(=O)[C@@H]5NC(=O)[C@H](CC(=O)O)NC(=O)[C@H](NC(=O)[C@@H](CC(C)C)NC)Cc6ccc(c(Cl)c6)Oc6cc5cc(c6O[C@@H]5O[C@H](CO)[C@@H](O)[C@H](O)[C@H]5O[C@H]5C[C@](C)(N)[C@H](O)[C@H](C)O5)Oc5ccc(cc5Cl)[C@H]4O)c4ccc(O)c(c4)-c4c(O)cc(O)cc43)nn1)NC2=O`, the minimal inhibitory concentration (MIC) in the test with Staphylococcus aureus [8], against Enterococcus faecalis and in the test with Enterococcus [9] was 0.5 µg/mL (≈ 0.16 µM) each time.

On to `CN[C@H](CC(C)C)C(=O)N[C@@H]1Cc2ccc(c(Cl)c2)Oc2cc3cc(c2O[C@@H]2O[C@H](CO)[C@@H](O)[C@H](O)[C@H]2O[C@H]2C[C@](C)(N)[C@H](O)[C@H](C)O2)Oc2ccc(cc2Cl)[C@@H](O)[C@@H]2NC(=O)[C@H](NC(=O)[C@@H]3NC(=O)[C@H](CC(=O)O)NC1=O)c1ccc(O)c(c1)-c1c(O)cc(O)cc1[C@H](C(=O)NCCCCc1cn(CCOCCOCCOCCNC(=O)[C@@H]3NC(=O)[C@H]4NC(=O)[C@H](NC(=O)[C@@H]5NC(=O)[C@H](CC(=O)O)NC(=O)[C@H](NC(=O)[C@@H](CC(C)C)NC)Cc6ccc(c(Cl)c6)Oc6cc5cc(c6O[C@@H]5O[C@H](CO)[C@@H](O)[C@H](O)[C@H]5O[C@H]5C[C@](C)(N)[C@H](O)[C@H](C)O5)Oc5ccc(cc5Cl)[C@H]4O)c4ccc(O)c(c4)-c4c(O)cc(O)cc43)nn1)NC2=O`, for which the MIC against Staphylococcus aureus [8], against Enterococcus faecalis and against Enterococcus [9] was 0.5 µg/mL (≈ 0.159 µM) throughout.

On to `CN[C@H](CC(C)C)C(=O)N[C@@H]1Cc2ccc(c(Cl)c2)Oc2cc3cc(c2O[C@@H]2O[C@H](CO)[C@@H](O)[C@H](O)[C@H]2O[C@H]2C[C@](C)(N)[C@H](O)[C@H](C)O2)Oc2ccc(cc2Cl)[C@@H](O)[C@@H]2NC(=O)[C@H](NC(=O)[C@@H]3NC(=O)[C@H](CC(=O)O)NC1=O)c1ccc(O)c(c1)-c1c(O)cc(O)cc1[C@H](C(=O)NCCOCCOCCOCCn1cc(CCNC(=O)[C@@H]3NC(=O)[C@H]4NC(=O)[C@H](NC(=O)[C@@H]5NC(=O)[C@H](CC(=O)O)NC(=O)[C@H](NC(=O)[C@@H](CC(C)C)NC)Cc6ccc(c(Cl)c6)Oc6cc5cc(c6O[C@@H]5O[C@H](CO)[C@@H](O)[C@H](O)[C@H]5O[C@H]5C[C@](C)(N)[C@H](O)[C@H](C)O5)Oc5ccc(cc5Cl)[C@H]4O)c4ccc(O)c(c4)-c4c(O)cc(O)cc43)nn1)NC2=O`, for which the minimum inhibitory concentration (MIC) in the test with Staphylococcus aureus [8], with Enterococcus faecalis and with Enterococcus [9] was 0.5 µg/mL (≈ 0.16 µM) each time.

In the case of `O=c1c2ccc(F)cc2ncn1CC(O)Cn1nnc2ccccc21` (stereo unspecified), the minimal inhibitory concentration (MIC) with Staphylococcus aureus [4] and in the test on Staphylococcus aureus [5] was at least 64 µg/mL in each case.

As to `Cc1ccc2c(c1)nnn2CC(O)Cn1cnc2cc(F)ccc2c1=O` (stereo unspecified), the minimal inhibitory concentration (MIC) in the test with Staphylococcus aureus [4] and against Staphylococcus aureus [5] was at least 64 µg/mL in each case.

As to `CN[C@H](CC(C)C)C(=O)N[C@@H]1Cc2ccc(c(Cl)c2)Oc2cc3cc(c2O[C@@H]2O[C@H](CO)[C@@H](O)[C@H](O)[C@H]2O[C@H]2C[C@](C)(N)[C@H](O)[C@H](C)O2)Oc2ccc(cc2Cl)[C@@H](O)[C@@H]2NC(=O)[C@H](NC(=O)[C@@H]3NC(=O)[C@H](CC(=O)O)NC1=O)c1ccc(O)c(c1)-c1c(O)cc(O)cc1[C@H](C(=O)NCCCCCc1cn(CCOCCOCCOCCNC(=O)[C@@H]3NC(=O)[C@H]4NC(=O)[C@H](NC(=O)[C@@H]5NC(=O)[C@H](CC(=O)O)NC(=O)[C@H](NC(=O)[C@@H](CC(C)C)NC)Cc6ccc(c(Cl)c6)Oc6cc5cc(c6O[C@@H]5O[C@H](CO)[C@@H](O)[C@H](O)[C@H]5O[C@H]5C[C@](C)(N)[C@H](O)[C@H](C)O5)Oc5ccc(cc5Cl)[C@H]4O)c4ccc(O)c(c4)-c4c(O)cc(O)cc43)nn1)NC2=O`, the MIC in the test on Staphylococcus aureus [8], with Enterococcus faecalis and in the test on Enterococcus [9] was 0.5 µg/mL (≈ 0.158 µM) each time.

The compound `N=C(N)NCCC[C@H](NC(=O)[C@H](Cc1c[nH]c2ccccc12)NC(=O)[C@H](CCCNC(=N)N)NC(=O)[C@H](Cc1c[nH]c2ccccc12)NC(=O)[C@@H](N)CCCNC(=N)N)C(=O)N[C@@H](Cc1c[nH]c2ccccc12)C(=O)N[C@@H](CCCCn1cc(COc2cc(OCc3cn(CCCC[C@H](NC(=O)[C@H](Cc4c[nH]c5ccccc45)NC(=O)[C@H](CCCNC(=N)N)NC(=O)[C@H](Cc4c[nH]c5ccccc45)NC(=O)[C@H](CCCNC(=N)N)NC(=O)[C@H](Cc4c[nH]c5ccccc45)NC(=O)[C@@H](N)CCCNC(=N)N)C(N)=O)nn3)cc(OCc3cn(CCCC[C@H](NC(=O)[C@H](Cc4c[nH]c5ccccc45)NC(=O)[C@H](CCCNC(=N)N)NC(=O)[C@H](Cc4c[nH]c5ccccc45)NC(=O)[C@H](CCCNC(=N)N)NC(=O)[C@H](Cc4c[nH]c5ccccc45)NC(=O)[C@@H](N)CCCNC(=N)N)C(N)=O)nn3)c2)nn1)C(N)=O` gave an MIC against Staphylococcus aureus [1] of 2.7 µM (≈ 10.4 µg/mL). In the test on Staphylococcus aureus [2], the Ratio is recorded as 0.5.

`CC(C)C[C@H](C(=O)N[C@@H]1Cc2ccc(c(Cl)c2)Oc2cc3cc(c2O[C@@H]2O[C@H](CO)[C@@H](O)[C@H](O)[C@H]2O[C@H]2C[C@](C)(NCCCCCCCc4ccccc4)[C@H](O)[C@H](C)O2)Oc2ccc(cc2Cl)[C@@H](O)[C@@H]2NC(=O)[C@H](NC(=O)[C@@H]3NC(=O)[C@H](CC(=O)O)NC1=O)c1ccc(O)c(c1)-c1c(O)cc(O)cc1[C@H](C(=O)O)NC2=O)n1cc(COc2ccc(-c3ccc(OCc4cn([C@H](CC(C)C)C(=O)N[C@@H]5Cc6ccc(c(Cl)c6)Oc6cc7cc(c6O[C@@H]6O[C@H](CO)[C@@H](O)[C@H](O)[C@H]6O[C@H]6C[C@](C)(NCCCCCCCc8ccccc8)[C@H](O)[C@H](C)O6)Oc6ccc(cc6Cl)[C@@H](O)[C@@H]6NC(=O)[C@H](NC(=O)[C@@H]7NC(=O)[C@H](CC(=O)O)NC5=O)c5ccc(O)c(c5)-c5c(O)cc(O)cc5[C@H](C(=O)O)NC6=O)nn4)cc3)cc2)nn1`: the MIC is 12.5 µg/mL (≈ 3.57 µM) in the test with Staphylococcus aureus [6], 12.5 µg/mL (≈ 3.57 µM) against Staphylococcus aureus [7] and 25 µg/mL (≈ 7.14 µM) against Enterococcus [10].

Regarding `O=c1c2ccc(Cl)cc2ncn1CC(O)Cn1nnc2ccccc21` (stereo unspecified), the MIC in the test with Staphylococcus aureus [4] and in the test with Staphylococcus aureus [5] was at least 64 µg/mL throughout.

On to `N=C(N)NCCC[C@H](NC(=O)[C@H](Cc1c[nH]c2ccccc12)NC(=O)[C@H](CCCNC(=N)N)NC(=O)[C@H](Cc1c[nH]c2ccccc12)NC(=O)[C@@H](N)CCCNC(=N)N)C(=O)N[C@@H](Cc1c[nH]c2ccccc12)C(=O)N[C@@H](CCCCn1cc(COc2cccc(OCc3cn(CCCC[C@H](NC(=O)[C@H](Cc4c[nH]c5ccccc45)NC(=O)[C@H](CCCNC(=N)N)NC(=O)[C@H](Cc4c[nH]c5ccccc45)NC(=O)[C@H](CCCNC(=N)N)NC(=O)[C@H](Cc4c[nH]c5ccccc45)NC(=O)[C@@H](N)CCCNC(=N)N)C(N)=O)nn3)c2)nn1)C(N)=O`, for which the MIC against Staphylococcus aureus [1] worked out at 2.7 µM (≈ 6.97 µg/mL). Moreover, in the test on Staphylococcus aureus [2], the Ratio stood at 0.5.

For the compound `CCCCCCCCOCc1cn([C@H]2C(=O)N[C@@H]3Cc4ccc(c(Cl)c4)Oc4cc5cc(c4O)Oc4ccc(cc4Cl)[C@@H](O[C@@H]4O[C@H](CO)[C@@H](O)[C@H](O)[C@H]4NC(C)=O)[C@@H]4NC(=O)[C@H](NC(=O)[C@@H]5NC(=O)[C@@H](NC3=O)c3cc(O)cc(c3)Oc3cc2ccc3O)c2ccc(O)c(c2)-c2c(O)cc(O)cc2[C@H](C(=O)O)NC4=O)nn1`, the minimum inhibitory concentration (MIC) against Staphylococcus aureus [11] and with Staphylococcus aureus [12] was 0.5 µg/mL (≈ 0.313 µM) in each case.

`CC(=O)N[C@H]1[C@H](O[C@@H]2c3ccc(c(Cl)c3)Oc3cc4cc(c3O)Oc3ccc(cc3Cl)C[C@H]3NC(=O)[C@H](n5cc(CO[C@H]6[C@@H](OCc7ccccc7)[C@@H](COCc7ccccc7)O[C@@H](O[C@H]7[C@H](OCc8ccccc8)[C@@H](OCc8ccccc8)[C@H](Sc8ccccc8)O[C@@H]7COCc7ccccc7)[C@@H]6OCc6ccccc6)nn5)c5ccc(O)c(c5)Oc5cc(O)cc(c5)[C@H](NC3=O)C(=O)N[C@H]4C(=O)N[C@H]3C(=O)N[C@@H]2C(=O)N[C@@H](C(=O)O)c2cc(O)cc(O)c2-c2cc3ccc2O)O[C@H](CO)[C@@H](O)[C@@H]1O`: the MIC against Staphylococcus aureus [11] and in the test on Staphylococcus aureus [12] was 32 µg/mL (≈ 13.1 µM) throughout.

Source of the values: ChEMBL document CHEMBL4706534, “1,2,3-Triazole-containing hybrids with potential antibacterial activity against methicillin-resistant Staphylococcus aureus (MRSA)” (Eur J Med Chem, 2020).
